Assay results published in US11162124B2, “Alcohol dehydrogenase mutant and application thereof in cofactor regeneration” (Jiangnan University, priority 2018, dated 2021).
Residue numbers refer to the chain shown, from its start.

Legend:
Type in all cases: biochemical
[1] = target: T1, alcohol dehydrogenase KpADH mutant M1 (V84I; parent SEQ ID No. 1) (Vanderwaltozyma polyspora, UniProt A7TM80, V84I); experiment: Kinetic analysis of KpADH mutant M1 toward diol co-substrates
T1 sequence (A7TM80 1-342 V84I): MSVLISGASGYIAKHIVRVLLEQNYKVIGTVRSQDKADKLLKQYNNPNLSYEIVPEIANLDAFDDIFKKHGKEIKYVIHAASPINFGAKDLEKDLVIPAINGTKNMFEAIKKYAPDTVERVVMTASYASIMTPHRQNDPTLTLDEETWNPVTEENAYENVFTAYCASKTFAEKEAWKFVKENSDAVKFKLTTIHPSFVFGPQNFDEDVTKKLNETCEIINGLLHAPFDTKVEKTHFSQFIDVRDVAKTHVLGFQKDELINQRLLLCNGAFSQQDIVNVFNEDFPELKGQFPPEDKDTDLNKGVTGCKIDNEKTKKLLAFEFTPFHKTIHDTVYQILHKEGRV
Method: M1 is obtained by mutating valine at position 84 into isoleucine in alcohol dehydrogenase having an original amino acid sequence as set forth in SEQ ID No. 1;
(§1) Changes in absorbance at 340 nm are measured.
(§2) The enzyme activity is calculated using the following formula: Enzyme activity (U)=EW×V×10^3/(6220×I);
(§3) In the formula, EW is the change in absorbance at 340 nm in 1 min; V is the volume of the reaction solution in mL; 6220 is the molar extinction coefficient of NAD(P)H in L/(mol·cm); I is optical distance in cm.
(§4) One unit of activity (U) corresponds to the amount of enzyme required for the catalytic oxidation of 1 μmol NADP^+ per minute under the above conditions.
(§5) Kinetic measurement is conducted according to the enzyme activity assay, with 10 μL of alcohol substrates of different concentrations, 1 mM NADP^+, 10 μL of enzymes of appropriate concentrations, 170 μL of glycine-sodium hydroxide buffer at pH 9.5, with each sample in triplicate. […] The calculation formulas are as follows: […]
(§6) The Vmax and Km values can be calculated from the intercepts of the double reciprocal plot on the X and Y axes;
(§7) The kcat value can be further calculated according to the formula.
(§8) The activity of KpADH under different substrate concentrations and cofactor concentrations was measured, and a double reciprocal plot was made according to the reciprocals of the activity and substrate concentration. The kinetic parameters were calculated.
(§9) The activity of KpADH under different substrate concentrations and cofactor concentrations was measured, and a double reciprocal plots were made according to the reciprocals of the activity and substrate concentration. The kinetic parameters were calculated.

[2] = target: T2, alcohol dehydrogenase KpADH mutant M2 (Y127C; parent SEQ ID No. 1) (Vanderwaltozyma polyspora, UniProt A7TM80, Y127C); experiment: Kinetic analysis of KpADH mutant M2 toward diol co-substrates
T2 sequence (A7TM80 1-342 Y127C): T1 sequence (A7TM80 1-342 V84I) with I84V, Y127C
Method: M2 is obtained by mutating tyrosine at position 127 into cysteine in alcohol dehydrogenase having an original amino acid sequence as set forth in SEQ ID No. 1;
as §1, §2, §3
(§10) One unit of activity (U) corresponds to the amount of enzyme required for the catalytic oxidation of 1 μmol NADP^+ per minute under the above conditions. […]
as §6, §7, §8, §9

[3] = target: T3, alcohol dehydrogenase KpADH mutant M3 (Y127M; parent SEQ ID No. 1) (Vanderwaltozyma polyspora, UniProt A7TM80, Y127M); experiment: Kinetic analysis of KpADH mutant M3 toward diol co-substrates; settings: for catalytic efficiency kcat/Km, times that of wild-type KpADH: mutant M3 relative to wild-type KpADH
T3 sequence (A7TM80 1-342 Y127M): T1 sequence (A7TM80 1-342 V84I) with I84V, Y127M
Method: M3 is obtained by mutating tyrosine at position 127 into methionine in alcohol dehydrogenase having an original amino acid sequence as set forth in SEQ ID No. 1;
as §1, §2, §3, §4, §5, §6, §7, §8, §9

[4] = target: T4, alcohol dehydrogenase KpADH mutant M5 (V84I/Y127M; parent SEQ ID No. 1) (Vanderwaltozyma polyspora, UniProt A7TM80, V84I/Y127M); experiment: Kinetic analysis of KpADH mutant M5 toward diol co-substrates; settings: mutant M5 relative to wild-type KpADH
T4 sequence (A7TM80 1-342 V84I/Y127M): T1 sequence (A7TM80 1-342 V84I) with Y127M
Method: the M5 is obtained by mutating valine at position 84 into isoleucine and tyrosine at position 127 into methionine in alcohol dehydrogenase having an original amino acid sequence as set forth in SEQ ID No. 1.
as §1, §2, §3, §4, §5, §6, §7, §8, §9

[5] = target: alcohol dehydrogenase KpADH, wild type, SEQ ID No. 1 (Vanderwaltozyma polyspora, UniProt A7TM80); experiment: Kinetic analysis of wild-type KpADH toward diol co-substrates; settings: 1 mM NADP+, Gly-NaOH pH 9.5, 30° C.
Method: as §1, §2, §3, §10, §6, §7, §8, §9

[6] = mutant M1, 1 mM NADP+, Gly-NaOH pH 9.5, 30° C.
[7] = mutant M1 relative to wild-type KpADH

Structure (SMILES)	kcat [1, 6] [s⁻¹]	kcat/KM [1, 6] [M⁻¹ s⁻¹]	kcat value, times that of wild-type KpADH [1, 7] [times]	kcat/Km value, times that of wild-type KpADH [1, 7] [times]	catalytic rates kcat [2] [mM]	catalytic rates kcat ([3]; mutant M3) [mM]	kcat/Km value, times that of wild-type KpADH [4] [times]	catalytic efficiency kcat/Km, times that of wild-type KpADH [3] [times]	Km [5] [mM]	kcat [5] [s⁻¹]
OCCCCO [1,4-butanediol]	1.26 ± 0.0217	10.3	7.3	4.53	27.8	16.8	14.7	–	–	–
OCCCCCO [1,5-pentanediol]	–	–	–	–	–	–	3.14	4.36	–	–
OCCCCCCO [1,6-hexanediol]	–	–	–	–	–	–	5.3	2.69	18.5 ± 1.5	0.698 ± 0.015
